Experimental data published in patent US7199267B1, “Recognition of oligiosaccaride molecular targets by polycationic small molecule inhibitors and treatment of immunological disorders and infectious diseases” (MediQuest Therapeutics, Inc., priority 2005, dated 2007).

Legend:
[1] = test system: murine macrophage J774A.1 cells; experiment: Nitric oxide assay (Griess): inhibition of LPS-induced NO production; format: cell-based; conditions: purified re-synthesized leads; 10 ng/ml LPS stimulation, 16 h; read-out: NO inhibition in murine J774 cells IC50 value
Procedure: Assessment of neutralization of LPS toxicity: NO inhibition activity. Murine monocytes (J774.A1 cells) produce measurable quantities of NO upon exposure to LPS and provide a high-throughput and validated model for the rapid and quantitative assessment of compounds in neutralizing the toxicity of LPS.^81;82;94 Compounds that neutralize LPS inhibit NO production in a dose-dependent manner from which 50% inhibitory concentrations (IC50) were determined (FIG. 4). The analogs determined to have the highest affinity in the BC-binding assay are then assayed in this NO inhibition assay (Table 1). Results in this assay parallel those in the binding assay (FIG. 5). Nitric Oxide Assay. Nitric oxide production is measured as total nitrite in murine macrophage J774A.1 cells using the Griess assay^96 as described previously.^94 J774A.1 cells are plated at ˜10^5/ml in a volume of 40 μl/well, in 384-well, flat-bottomed, cell culture treated microtiter plates and subsequently stimulated with 10 ng/ml lipopolysaccharide (LPS). Concurrent to LPS stimulation, serially diluted concentrations of test compounds are added to the cell medium and left to incubate overnight for 16 h. Polymyxin B is used as reference compound in each plate. Positive- (LPS stimulation only) and negative-controls (J774A. 1 medium only) are included in each experiment. Nitrite concentrations are measured by adding 40 μl of supernatant to equal volumes of Griess reagents ([…]; 0.1% NED solution in ddH2O and 1% sulfanilamide, 5% phosphoric acid solution in ddH2O) and incubating for 15 minutes at room temperature in the dark. Absorbance at 535 nm is measured using a Molecular Devices Spectramax M2 multifunction plate reader (Sunnyvale, Calif.). Nitrite concentrations are interpolated from standard curves obtained from serially diluted sodium nitrite standards.

[2] = BODIPY-TR-cadaverine (BC) fluorescence displacement assay for LPS binding affinity; conditions: purified re-synthesized leads; half-maximal effective displacement of probe; 50 mM Tris buffer, pH 7.4; read-out: Binding affinity (BC displacement) ED50 value
Source text: Quantitative Estimation of LPS Binding Affinity. The relative binding affinities of the entire library of analogs with a recently-described high-throughput fluorescence based displacement assay, is examined using BODIPY-TR cadaverine (BC).^81;82 Results are reported as half-maximal effective displacement of probe (ED50). In all experiments, Polymyxin B (PMB), a decapeptide antibiotic, known to bind and neutralize LPS,^83–86 is used as a reference compound.
Rapid-throughput Fluorescence Displacement Assay for quantifying binding affinities to LPS. The BODIPY-TR-cadaverine (BC; (5-(((4-(4,4-difluoro-5-(2-thienyl)-4-bora-3a,4a-diaza-s-indacene-3-yl) phenoxy)acetyl)amino)pentylamine, hydrochloride; obtained from Molecular probes, Inc., Eugene, Oreg.) displacement assay to quantify the affinities of binding of compounds to LPS has been described in detail recently.^81 This assay is performed in a rapid-throughput format as follows: the first column (16 wells) of a Corning Nonbinding Surface 384-well flat-bottom black fluorescence microplate contain 15 test compounds plus polymyxin B, all at 5 mM in DMSO, and are serially diluted two-fold in 50 mM Tris buffer, pH 7.4, across the remaining 23 columns, achieving a final dilution of 0.596 nM in a volume of 40 μl. Polymyxin B (PMB), a peptide antibiotic known to bind and neutralize LPS^95 serve as the positive control and reference compound for every plate, enabling the quantitative assessment of repeatability and reproducibility (CV and Z′ factors) for the assay. Automated liquid handling is performed on a Precision 2000 automated microplate pipetting system, programmed using the Precision Power software, Bio-Tek Instruments Inc., VT, USA.

SMILES: CCCCCCCCCCCCCCCCCCNCC(=O)NCC(=O)NCCCCCN [compound 1227]
- IC50 [1]: 3.27 µM
- EC50 [2]: 28.2 µM

SMILES: CCCCCCCCCCCCCCCCCCNCCC(=O)NC(Cc1ccccc1)C(=O)NCCCN (centres unmarked) [compound 1097]
- IC50 [1]: 8.7 µM
- EC50 [2]: 4.13 µM

SMILES: CCCCCCCCCCCCCCCCCCNCC(=O)NC(Cc1ccccc1)C(=O)NCCCN (centres unmarked) [compound 1092]
- IC50 [1]: 6.74 µM
- EC50 [2]: 8.8 µM

SMILES: CCCCCCCCCCCCCCCCCCNCCC(=O)NCCCN [compound 2323]
- IC50 [1]: 7.49 µM
- EC50 [2]: 9.92 µM

SMILES: CCCCCCCCCCCCCCCCCCNCCC(=O)NCC(=O)NCCOCCN [compound 1052]
- IC50 [1]: 1.84 µM
- EC50 [2]: 14.2 µM

SMILES: CCCCCCCCCCCCCCCCCCNCCC(=O)NC(Cc1cnc[nH]1)C(=O)NCCCN (centres unmarked) [compound 1127]
- IC50 [1]: 8.06 µM
- EC50 [2]: 6.86 µM

SMILES: CCCCCCCCCCCCCCCCCCNCCC(=O)NC(Cc1ccccc1)C(=O)NCCOCCN (centres unmarked) [compound 1007]
- IC50 [1]: 2.79 µM
- EC50 [2]: 2.54 µM

SMILES: CCCCCCCCCCCCCCCCCCNCCC(=O)NCCOCCN [compound 2328]
- IC50 [1]: 6.54 µM
- EC50 [2]: 9.16 µM

SMILES: CCCCCCCCCCCCCCCCCCNCC(=O)NCCCCCN [compound 2325]
- IC50 [1]: 3.96 µM
- EC50 [2]: 8.74 µM

SMILES: CCCCCCCCCCCCCCCCCCNCC(=O)NCCOCCN [compound 2326]
- IC50 [1]: 9.73 µM
- EC50 [2]: 12.2 µM

SMILES: CCCCCCCCCCCCCCCCCCNCC(=O)NCCCN [compound 2322]
- IC50 [1]: 5.56 µM
- EC50 [2]: 3.8 µM

SMILES: CCCCCCCCCCCCCCCCCCNCCCC(=O)NCCCN [compound 2324]
- IC50 [1]: 4.87 µM
- EC50 [2]: 6.21 µM

SMILES: CCCCCCCCCCCCCCCCCCNCCC(=O)NCC(=O)NCCCN [compound 1142]
- IC50 [1]: 5.26 µM
- EC50 [2]: 2420 µM

SMILES: CCCCCCCCCCCCCCCCCCNCCC(=O)NCC(=O)NCCCCCN [compound 1232]
- IC50 [1]: 4.61 µM
- EC50 [2]: 11.2 µM

SMILES: CCCCCCCCCCCCCCCCCCNCCCC(=O)NC(Cc1cnc[nH]1)C(=O)NCCOCCN (centres unmarked) [compound 1042]
- IC50 [1]: 1.86 µM
- EC50 [2]: 5.38 µM

SMILES: CCCCCCCCCCCCCCCCCCNCCCC(=O)NC(Cc1cnc[nH]1)C(=O)NCCCN (centres unmarked) [compound 1132]
- IC50 [1]: 1.83 µM
- EC50 [2]: 3.01 µM

SMILES: CCCCCCCCCCCCCCCCCCNCC(=O)NC(Cc1cnc[nH]1)C(=O)NCCCCCN (centres unmarked) [compound 1212]
- IC50 [1]: 2.04 µM
- EC50 [2]: 12.1 µM

SMILES: CCCCCCCCCCCCCCCCCCNCCCC(=O)NCCCCCN [compound 2329]
- IC50 [1]: 2.07 µM
- EC50 [2]: 7.61 µM

SMILES: CCCCCCCCCCCCCCCCCCNCCCC(=O)NC(Cc1ccccc1)C(=O)NCCCN (centres unmarked) [compound 1102]
- IC50 [1]: 3.42 µM
- EC50 [2]: 5.75 µM

SMILES: CCCCCCCCCCCCCCCCCCNCCCC(=O)NCCOCCN [compound 2330]
- IC50 [1]: 5 µM
- EC50 [2]: 5.73 µM

SMILES: CCCCCCCCCCCCCCCCCCNCCCC(=O)NC(Cc1ccccc1)C(=O)NCCOCCN (centres unmarked) [compound 1012]
- IC50 [1]: 3.78 µM
- EC50 [2]: 7.68 µM

SMILES: CCCCCCCCCCCCCCCCCCNCCCC(=O)NCC(=O)NCCCN [compound 1147]
- IC50 [1]: 6.57 µM
- EC50 [2]: 6.14 µM

SMILES: CCCCCCCCCCCCCCCCCCNCC(=O)NC(Cc1cnc[nH]1)C(=O)NCCCN (centres unmarked) [compound 1122]
- IC50 [1]: 6.9 µM
- EC50 [2]: 4.87 µM

SMILES: CCCCCCCCCCCCCCCCCCNCC(=O)NCC(=O)NCCOCCN [compound 1047]
- IC50 [1]: 11.5 µM
- EC50 [2]: 14 µM

SMILES: CCCCCCCCCCCCCCCCCCNCCC(=O)NC(Cc1cnc[nH]1)C(=O)NCCOCCN (centres unmarked) [compound 1037]
- IC50 [1]: 1.88 µM
- EC50 [2]: 3.17 µM

SMILES: CCCCCCCCCCCCCCCCCCNCCC(=O)NCCCCCN [compound 2327]
- IC50 [1]: 1.08 µM
- EC50 [2]: 4.03 µM

SMILES: CCCCCCCCCCCCCCCCCCNCCCC(=O)NC(Cc1cnc[nH]1)C(=O)NCCCCCN (centres unmarked) [compound 1222]
- IC50 [1]: 0.9 µM
- EC50 [2]: 18.7 µM

SMILES: CCCCCCCCCCCCCCCCCCNCC(=O)NC(Cc1cnc[nH]1)C(=O)NCCOCCN (centres unmarked) [compound 1032]
- IC50 [1]: 1.64 µM
- EC50 [2]: 13.1 µM

SMILES: CCCCCCCCCCCCCCCCCCNCCC(=O)NC(Cc1ccccc1)C(=O)NCCCCCN (centres unmarked) [compound 1187]
- IC50 [1]: 4.88 µM
- EC50 [2]: 3850 µM

SMILES: CCCCCCCCCCCCCCCCCCNCCCC(=O)NC(Cc1ccccc1)C(=O)NCCCCCN (centres unmarked) [compound 1192]
- IC50 [1]: 4.8 µM
- EC50 [2]: 7.51 µM

SMILES: CCCCCCCCCCCCCCCCCCNCC(=O)NC(Cc1ccccc1)C(=O)NCCOCCN (centres unmarked) [compound 1002]
- IC50 [1]: 17.6 µM
- EC50 [2]: 12.4 µM

SMILES: CCCCCCCCCCCCCCCCCCNCCCC(=O)NCC(=O)NCCOCCN [compound 1057]
- IC50 [1]: 3.33 µM
- EC50 [2]: 10.8 µM

SMILES: CCCCCCCCCCCCCCCCCCNCC(=O)NCC(=O)NCCCN [compound 1137]
- IC50 [1]: 7.94 µM
- EC50 [2]: 6.61 µM

SMILES: CCCCCCCCCCCCCCCCCCNCCCC(=O)NCC(=O)NCCCCCN [compound 1237]
- IC50 [1]: 3.22 µM
- EC50 [2]: 9.77 µM
